Test results from patent publication US20240262812A1, “N-SUBSTITUTED PHENYLSULFONAMIDE COMPOUND AND USE THEREOF” (Shanghai Leado Pharmatech Co., Ltd., priority 2021, published 2024).

Target: T1, mTRPA1 (Mus musculus, UniProt Q8BLA8)
T1 construct: expressed in transfected cells
Test: IonWorks Barracuda (IWB) automated patch clamp, TRPA1 inhibitory activity
Type: cell-based
Details: HEK293 cells stably expressing mTRPA1, current induced by AITC, amplitude at +100 mV; read-out: IC50 (inhibition activity on TRPA1)
Experimental: In this example, the inhibitory activity of the compounds prepared in some examples of the present invention on transient receptor potential channel protein ankyrin 1 (TRPA1) was tested. Among them, compound of formula A (WO2010075353) was used as the positive control compound: […]
Test method using IonWorks Barracuda (IWB) automated patch clamp detection: HEK293 cells stably expressing mTRPA1 were placed in the T175 culture flask with DMEM medium containing 15 µg/mL Blasticidin S HCl, 200 µg/mL Hygromycin B and 10% FBS, and cultured in 37° C., 5% CO2 incubator. When the cell density reached about 80%, the culture medium was removed, washed once with phosphate buffered saline (PBS) without calcium and magnesium. 3 mL of Trypsin was added to digest for 2 min, 7 mL of culture solution was added to terminate the digestion. The cells were collected to 15 mL centrifuge tube and centrifuged at 800 rpm for 3 min. After the supernatant was removed, the cells were added to appropriate volume of extracellular fluid for re-suspending, and the cell density was controlled at 2-3×10^6/mL for use in IWB experiment. Extracellular fluid formulation (in mM): 140 NaCl, 5 KCl, 1 MgCl2, 10 HEPES, 0.5 EGTA, 10 Glucose (pH 7.4); intracellular fluid formulation (in mM): 140 CsCl, 10 HEPES, 5 EGTA, 0.1 CaCl2, 1 MgCl2 (pH 7.2). 28 mg/mL of amphotericin B was freshly prepared with DMSO on the day of experiment, and then final concentration of 0.1 mg/mL was prepared with intracellular fluid.
Population patch clamp (PPC) plate was used in IWB experiment. The entire detection process was automatically carried out by the instrument, that is, extracellular fluid was added into 384 wells of PPC plate, and after intracellular fluid was added under PPC plate (in plenum), 6 µL of cell fluid was added for sealing test, and finally the intracellular fluid in plenum was replaced with intracellular fluid containing amphotericin B to establish a whole-cell recording mode after perforating sealed cells. The sampling frequency for recording TPRA1 current was 10 kHz, the cells were clamped at 0 mV, the voltage stimulation command (channel protocol) was a ramp voltage from −100 mV to +100 mV for 300 ms. This voltage stimulation was applied every 10 s, mTRPA1 current was induced by 300 µM AITC.
Data recording and current amplitude measurement export were carried out by IWB software (version 2.5.3, Molecular Devices Corporation, Union City, CA). No statistics was recorded for holes with sealing impedance lower than 20 MΩ. The original current data was corrected by software for leak subtraction. TRPA1 current amplitude was measured at +100 mV. […] If IC50 value of HC030031 exceeded 3 times of the average IC50 value previously obtained on each plate, it would be re-tested. The dose-effect curve of compounds and IC50 were fitted and calculated by GraphPad Prism 5.02 (GraphPad Software, San Diego, CA).
Some compounds of the present invention were subjected to IC50 inhibition activity test using the IonWorks Barracuda (IWB) automated patch clamp detection method.

T1 sequence (Q8BLA8 whole entry): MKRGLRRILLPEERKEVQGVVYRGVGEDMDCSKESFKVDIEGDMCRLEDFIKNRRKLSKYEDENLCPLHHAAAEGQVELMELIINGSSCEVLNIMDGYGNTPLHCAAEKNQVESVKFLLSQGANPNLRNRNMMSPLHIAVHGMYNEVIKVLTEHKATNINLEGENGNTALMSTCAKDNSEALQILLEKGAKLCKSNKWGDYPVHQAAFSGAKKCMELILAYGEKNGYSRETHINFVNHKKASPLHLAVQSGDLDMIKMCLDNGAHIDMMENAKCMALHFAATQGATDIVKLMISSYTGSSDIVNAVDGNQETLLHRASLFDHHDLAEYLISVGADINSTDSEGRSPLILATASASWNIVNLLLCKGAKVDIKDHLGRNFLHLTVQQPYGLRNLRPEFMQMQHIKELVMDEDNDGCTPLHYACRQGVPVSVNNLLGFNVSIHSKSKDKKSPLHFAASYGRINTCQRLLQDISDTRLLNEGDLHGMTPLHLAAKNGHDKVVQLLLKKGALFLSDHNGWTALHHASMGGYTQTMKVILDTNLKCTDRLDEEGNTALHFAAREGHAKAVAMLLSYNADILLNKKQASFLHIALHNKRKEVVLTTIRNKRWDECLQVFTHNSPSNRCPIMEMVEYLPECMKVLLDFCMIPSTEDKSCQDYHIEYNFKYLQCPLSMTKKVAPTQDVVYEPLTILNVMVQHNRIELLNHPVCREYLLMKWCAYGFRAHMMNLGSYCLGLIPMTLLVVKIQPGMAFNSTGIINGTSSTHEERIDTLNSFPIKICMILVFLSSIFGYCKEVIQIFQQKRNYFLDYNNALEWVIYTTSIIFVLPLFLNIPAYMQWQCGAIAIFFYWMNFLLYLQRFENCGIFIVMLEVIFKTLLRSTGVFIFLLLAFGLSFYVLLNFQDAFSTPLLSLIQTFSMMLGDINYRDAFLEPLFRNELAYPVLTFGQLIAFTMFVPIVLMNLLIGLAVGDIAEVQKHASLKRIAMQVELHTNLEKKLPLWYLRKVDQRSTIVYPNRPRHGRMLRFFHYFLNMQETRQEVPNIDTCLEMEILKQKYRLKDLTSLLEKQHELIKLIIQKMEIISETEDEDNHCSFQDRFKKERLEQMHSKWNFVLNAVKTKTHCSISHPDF

Compound	IC50 [µM]
C[C@H]1CCCN1c1ccc(-c2csc(NC(=O)Cn3cnc4c3c(=O)n(C)c(=O)n4C)n2)cc1F [Compound of formula A, reference compound]	50 to 100
CNCc1ccc(-c2ccco2)c(NS(=O)(=O)c2ccccc2F)c1 [IA-2, 2-Fluoro-N-(2-(furan-2-yl)-5-((methylamino)methyl)phenyl)benzenesulfonamide]	1 to 5
CNCc1ccc(-c2ccco2)c(NS(=O)(=O)c2cccc(F)c2)c1 [IA-3, 3-Fluoro-N-(2-(furan-2-yl)-5-((methylamino)methyl)phenyl)benzenesulfonamide]	1 to 5
CNCc1ccc(-c2ccco2)c(NS(=O)(=O)c2ccccc2)c1 [IA-4, N-(2-(furan-2-yl)-5-((methylamino)methyl)phenyl)benzenesulfonamide]	1 to 5
CNCc1ccc(-c2ccco2)c(NS(=O)(=O)c2ccc(OC)cc2)c1 [IA-6, 4-Methoxy-N-(2-(furan-2-yl)-5-((methylamino)methyl)phenyl)benzenesulfonamide]	5 to 10
CNCc1ccc(-c2ccco2)c(NS(=O)(=O)c2ccc(Cl)cc2)c1 [IA-7]	5 to 10
CNCc1ccc(-c2ccco2)c(NS(=O)(=O)c2ccccc2OC(F)(F)F)c1 [IA-8, 2-Trifluoromethoxy-N-(2-(furan-2-yl)-5-((methylamino)methyl)phenyl)benzenesulfonamide]	10 to 20
CNCc1ccc(-c2ccco2)c(NS(=O)(=O)c2ccc(OC(F)(F)F)cc2)c1 [IA-9, 4-Trifluoromethoxy-N-(2-(furan-2-yl)-5-((methylamino)methyl)phenyl)benzenesulfonamide]	20 to 50
CNCc1ccc(-c2ccco2)c(NS(=O)(=O)c2ccc(C)cc2)c1 [IA-10, 4-Methyl-N-(2-(furan-2-yl)-5-((methylamino)methyl)phenyl)benzenesulfonamide]	1 to 5
CNCc1ccc(-c2ccco2)c(NS(=O)(=O)c2c(F)cccc2F)c1 [IA-12, 2,6-Difluoro-N-(2-(furan-2-yl)-5-((methylamino)methyl)phenyl)benzenesulfonamide]	5 to 10
CNCc1ccc(-c2ccco2)c(NS(=O)(=O)c2ccc(C(F)(F)F)cc2)c1 [IA-13, 4-Trifluoromethyl-N-(2-(furan-2-yl)-5-((methylamino)methyl)phenyl)benzenesulfonamide]	10 to 20
CNCc1ccc(-c2ccco2)c(NS(=O)(=O)c2ccc3ccccc3c2)c1 [IA-14, N-(2-(furan-2-yl)-5-((methylamino)methyl)phenyl)naphthalene-2-sulfonamide]	50 to 100
CNCc1ccc(-c2ccco2)c(NS(=O)(=O)c2ccc3ncsc3c2)c1 [IA-16, N-(2-(furan-2-yl)-5-((methylamino)methyl)phenyl)benzothiazole-6-sulfonamide]	5 to 10
CNCc1ccc(-c2ccco2)c(NS(=O)(=O)c2cccnc2)c1 [IA-17, N-(2-(furan-2-yl)-5-((methylamino)methyl)phenyl)pyridine-3-sulfonamide]	5 to 10
CNCc1ccc(-c2ccco2)c(NS(=O)(=O)c2ccc(Cl)nc2)c1 [IA-18, 6-Chloro-N-(2-(furan-2-yl)-5-((methylamino)methyl)phenyl)pyridine-3-sulfonamide]	10 to 20
CNCc1ccc(-c2ccco2)c(NS(=O)(=O)c2cccs2)c1 [IA-20, N-(2-(furan-2-yl)-5-((methylamino)methyl)phenyl)thiophene-2-sulfonamide]	1 to 5
CNCc1ccc(-c2ccco2)c(NS(=O)(=O)c2ccc(Cl)s2)c1 [IA-22, 5-Chloro-N-(2-(furan-2-yl)-5-((methylamino)methyl)phenyl)thiophene-2-sulfonamide]	20 to 50
CNCc1ccc(-c2ccco2)c(NS(=O)(=O)c2ccc(Br)s2)c1 [IA-23, 5-Bromo-N-(2-(furan-2-yl)-5-((methylamino)methyl)phenyl)thiophene-2-sulfonamide]	10 to 20
CNCc1ccc(-c2ccco2)c(NS(=O)(=O)Cc2ccccc2)c1 [IA-24, N-(2-(furan-2-yl)-5-((methylamino)methyl)phenyl)-1-phenylmethanesulfonamide]	20 to 50
O=S(=O)(Nc1cc(CNCC(F)(F)F)ccc1-c1ccco1)c1ccccc1 [IA-25]	20 to 50

Compound	IC50 [µM]
CNCc1ccc(NS(=O)(=O)c2ccccc2)c(-c2ccco2)c1 [IA-26, N-(2-(furan-2-yl)-4-((methylaamino)methyl)phenyl)benzenesulfonamide]	1 to 5
CNCc1ccc(NS(=O)(=O)c2ccc(F)cc2)c(-c2ccco2)c1 [IA-27, 4-Fluoro-N-(2-(furan-2-yl)-4-((methylamino)methyl)phenyl)benzenesulfonamide]	1 to 5
CNCc1ccc(NS(=O)(=O)c2ccccc2F)c(-c2ccco2)c1 [IA-28, 2-Fluoro-N-(2-(furan-2-yl)-4-((methylamino)methyl)phenyl)benzenesulfonamide]	1 to 5
CNCc1ccc(NS(=O)(=O)c2cccs2)c(-c2ccco2)c1 [IA-29, N-(2-(furan-2-yl)-4-((methylamino)methyl)phenyl)thiophene-2-sulfonamide]	< 1
CNCc1ccc(NS(=O)(=O)c2cccnc2)c(-c2ccco2)c1 [IA-31, N-(2-(furan-2-yl)-4-((methylamino)methyl)phenyl)pyridine-3-sulfonamide]	5 to 10
CCNCc1ccc(NS(=O)(=O)c2ccsc2)c(-c2ccco2)c1 [IA-32, N-(4-((ethylamino)methyl)-2-(furan-2-yl)phenyl)thiophene-3-sulfonamide]	< 1
O=S(=O)(Nc1ccc(CNC2CCC2)cc1-c1ccco1)c1ccsc1 [IA-34, N-(4-((cyclobutylamino)methyl)-2-(furan-2-yl)phenyl)thiophene-3-sulfonamide]	1 to 5
CNCc1ccc(NS(=O)(=O)c2ccccc2)cc1-c1ccco1 [IA-36, N-(3-(furan-2-yl)-4-((methylamino)methyl)phenyl)benzenesulfonamide]	20 to 50
CNCc1cc(NS(=O)(=O)c2ccccc2)cc(-c2ccco2)c1 [IA-39, N-(3-(furan-2-yl)-5-((methylamino)methyl)phenyl)benzenesulfonamide]	20 to 50
CNCc1ccc(-c2ccco2)cc1NS(=O)(=O)c1ccccc1 [IA-40, N-(5-(furan-2-yl)-2-((methylamino)methyl)phenyl)benzenesulfonamide]	50 to 100
CNCc1ccc(-c2ccoc2)c(NS(=O)(=O)c2ccc(F)cc2)c1 [IA-41, 4-Fluoro-N-(2-(furan-3-yl)-5-((methylamino)methyl)phenyl)benzenesulfonamide]	5 to 10
CNCc1ccc(-c2ccoc2)c(NS(=O)(=O)c2ccccc2)c1 [IA-42, N-(2-(furan-3-yl)-5-((methylamino)methyl)phenyl)benzenesulfonamide]	1 to 5
CNCc1ccc(-c2cccs2)c(NS(=O)(=O)c2ccccc2)c1 [IA-46, N-(2-(thiophene-2-yl)-5-((methylamino)methyl)phenyl)benzenesulfonamide]	1 to 5
CNCc1ccc(-c2cccs2)c(NS(=O)(=O)c2cccs2)c1 [IA-47, N-(2-(thiophene-2-yl)-5-((methylamino)methyl)phenyl)thiophene-2-sulfonamide]	1 to 5
CNCc1ccc(-c2cccs2)c(NS(=O)(=O)c2ccsc2)c1 [IA-48, N-(2-(thiophene-2-yl)-5-((methylamino)methyl)phenyl)thiophene-3-sulfonamide]	1 to 5
CNCc1ccc(-c2ccc[nH]2)c(NS(=O)(=O)c2ccccc2)c1 [IA-50, N-(5-((methylamino)methyl)-2-(1H-pyrrole-2-yl)phenyl)benzenesulfonamide]	20 to 50
CNCc1ccc(-c2cn[nH]c2)c(NS(=O)(=O)c2ccccc2)c1 [IA-52]	20 to 50
CNCc1ccc(-c2c(C)noc2C)c(NS(=O)(=O)c2ccccc2)c1 [IA-53, N-(2-(3,5-dimethylisoxazol-4-yl)-5-((methylamino)methyl)phenyl)benzenesulfonamide]	5 to 10
CNCc1ccc(-c2cc[nH]n2)c(NS(=O)(=O)c2ccccc2)c1 [IA-54, N-(5-((methylamino)methyl)-2-(1H-pyrazol-5-yl)phenyl)benzenesulfonamide]	1 to 5
